The source of these data is PubChem BioAssay AID179 (DTP/NCI, 2004).

Several values for one entry are separate records, joined by “and”; a condition that tells them apart may be missing. Identical values can stand only once. Activity calls are given as the source filed them.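 Rule for the calls: active = compounds giving half or more protection of infected cells from virus-caused growth loss, again on retest; inactive = the rest.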 Where a SMILES comes first, the peptide text is derived from it. [ ]: non-standard residue; d: D form. Phe(4-Cl) = N[CH](Cc1ccc(Cl)cc1)C(=O)O; 3Pal = N[CH](Cc1cccnc1)C(=O)O

For this test, the system named is CEM cells HIV-1 protection, formazan growth assay. Kind of test: NCI AIDS Antiviral Assay. The settings on record: for IC50: measured here: growth of uninfected CEM cells. In a few lines: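 Five concentrations of each compound were applied to infected and uninfected human CEM cells. Protection from HIV-1 was judged from growth measured with a soluble formazan assay.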

For `COC(=O)C1(C)CC(c2ccccc2)=NC1c1ccccc1` (configuration not stated), the EC50 is above 123 µM and the half-inhibitory concentration (IC50) is above 123 µM.

Consider `O=C(c1cc(Cl)ccc1Cl)N1CCN(c2cccc(Cl)c2)CC1`, for which the EC50 was above 200 µM and the IC50 stood at 15.5 µM.

In the case of `CC(=O)NS(=O)(=O)c1ccc(N=Cc2cc(Cl)cc(Cl)c2O)cc1`, the EC50 is above 200 µM and the IC50 is 19.5 µM.

As to `O=S(=O)(c1ccccc1)C1CN2OC1(S(=O)(=O)c1ccccc1)CC21CCCCC1` (configuration not stated), the outcome was inactive.

As to `Cc1c2ccc(Cl)cc2nc2ccc(OCCNC(=O)[C@H](CCCN=C(N)N)NC(=O)OC(C)(C)C)cc12`, the EC50 was above 200 µM and the half-maximal inhibitory concentration (IC50) is 89.1 µM.

For the compound `COc1ccc(/C=C(\C#N)c2ccccn2)cc1OC`, the EC50 is above 200 µM and the concentration for half-maximal inhibition (IC50) turned out to be 50.1 µM.

Regarding `N=C(N)SCC1OCOC1C1OCOC1CSC(=N)N` (configuration not stated), the EC50 was above 776 µM and the IC50 was above 776 µM.

Turning to `S=C1NC2=C(CSC/C2=C\c2cccc(Br)c2)C(c2cccc(Br)c2)N1` (configuration not stated), the EC50 was above 200 µM and the IC50 came out at 19.5 µM.

Turning to `Fc1nc(-c2c3ccccc3c3sc4ccccc4n23)nc(N2CCOCCOCCOCCOCC2)n1`, the EC50 is above 200 µM and the half-maximal inhibitory concentration (IC50) was found to be 51.3 µM.

Regarding `O=C1N=CC2(N=N2)C(=O)N1`, the EC50 is above 200 µM and the IC50 was found to be 15.5 µM.

As to `Cc1cc(C)nc(NS(=O)(=O)c2ccc(NC(=O)c3cccc4c(Nc5ccc(S(=O)(=O)N=C(N)N)cc5)c5ccc(Cl)cc5nc34)cc2)n1`, the EC50 is above 49 µM and the IC50 was above 49 µM.

Regarding `C/C(O)=C(\N=O)C(=O)Nc1ccc(Cl)cc1Cl`, the EC50 is above 339 µM and the IC50 stood at 145 µM.

Turning to `Cc1nc2ccc(Br)cc2c(=O)n1-c1ccc(NC2OC(CO)C(O)C(O)C2O)cc1` (configuration not stated), the EC50 is above 200 µM; the half-inhibitory concentration (IC50) is > 200 µM and 195 µM.

Turning to `COc1ccc(NC(=S)NNC(=O)c2cc(-c3ccccc3)nc3ccccc23)cc1`, the EC50 was above 200 µM and the concentration for half-maximal inhibition (IC50) was 35.5 µM.

Regarding `COc1ccc(C2c3cc4c(cc3OC(NNC(N)=O)C2C)OCO4)cc1` (configuration not stated), the EC50 is above 200 µM and the IC50 was determined as 3.89 µM.

For `CN(C)C(=O)C(CC[N+]1(C)CCCC12CCCCC2)(c1ccccc1)c1ccccc1` (configuration not stated), the EC50 is above 200 µM and the IC50 stood at 74.1 µM.

Turning to `O=C(O)CCCc1ccc2c(c1)C(C(=O)O)CC2` (configuration not stated), the EC50 is above 200 µM and the IC50 is above 200 µM.

As to `Cn1cc(NC(=O)Nc2cc(C(=O)Nc3cc(C(=O)Nc4cc(C(=O)Nc5ccc(P(=O)(O)O)c6cc(P(=O)(O)O)ccc56)n(C)c4)n(C)c3)n(C)c2)cc1C(=O)Nc1cc(C(=O)Nc2cc(C(=O)Nc3ccc(P(=O)(O)O)c4cc(P(=O)(O)O)ccc34)n(C)c2)n(C)c1`, the half-maximal effective concentration (EC50) was 1.29 µM and the IC50 came to 37.2 µM.

In the case of `Nc1ccccc1/C=C1/Sc2cc[nH]c2C1=O`, the EC50 was above 63.1 µM and the IC50 is above 63.1 µM.

Consider `N#CC12C(=N)CCC1C1CC2C2C3C=CC(C3)C12` (configuration not stated), for which the EC50 is above 200 µM and the IC50 was above 200 µM.

Turning to `Cc1ccc(S(=O)(=O)NCCSCCNS(=O)(=O)c2ccc(C)cc2)cc1`, the EC50 is above 575 µM and the half-maximal inhibitory concentration (IC50) was above 575 µM.

`O=C(OC1CCCCC1)c1cc(NC(=S)c2ccccc2F)ccc1Cl`: the 50% effective concentration (EC50) was 0.0363 µM and the IC50 is 18.2 µM.

As to `CCOC(=O)c1cc2c([nH]1)C(=O)CSC1=C2CCN1Cc1ccccc1`, the EC50 was above 50.1 µM and the IC50 was determined as 21.9 µM.

For the compound `COC1(CCO)CC=CCC1(CCO)OC` (configuration not stated), the EC50 is above 200 µM and the IC50 is above 200 µM.

Turning to `O=C(O)CSC(=S)N1CCCC1`, the EC50 is above 200 µM and the IC50 turned out to be 102 µM.

As to `COC(=O)N/N=C(\Cc1ccccc1)CN(C)C`, the EC50 was above 200 µM and the IC50 is above 200 µM.

For `COC(=O)/C(=N\Nc1nc(=S)[nH]n1N)C(C#N)c1ccccc1` (configuration not stated), the EC50 was above 178 µM and the IC50 was above 178 µM.

Consider `COc1ccc(S(=O)(=O)N(C)C)cc1C(=O)c1cc(S(=O)(=O)N(C)C)ccc1OC`, for which the EC50 is above 2.29 µM and the IC50 is above 2.29 µM.

Consider `COC(=O)CC[N+]1=CCC(c2ccccc2)(c2ccccc2)O1`, for which the EC50 is above 115 µM and the IC50 stood at 69.2 µM.

On to `CCc1n[nH]c(=O)n1/N=C/c1ccc(C)cc1`, for which the EC50 is above 200 µM and the IC50 is 158 µM.

For the compound `COc1cc2c(cc1OC)C(Cl)C(c1ccc(F)cc1)=C2Cl` (configuration not stated), the result was inactive.

With `CC(C)c1ccc2nc3ccc(C(=O)NCCN4CCN(c5ccccc5)CC4)cn3c(=O)c2c1`, the EC50 is above 200 µM and the IC50 came out at 14.8 µM.

As for `O=c1c(SCc2ccc(Br)cc2)c(SCc2ccc(Br)cc2)cnn1-c1ccccc1`, the EC50 is above 12.6 µM and the IC50 was determined as 6.46 µM.

On to `CCCCCCCCC=CCCCCCCCC(=O)O[C@H](COC(=O)CCCCCCC/C=C\CCCCCCCC)COP(=O)(O)OCCNC(=O)CCC(=O)OCCC=C(c1cc(Cl)c(OC)c(C(=O)OC)c1)c1cc(Cl)c(OC)c(C(=O)OC)c1`, for which the EC50 was above 100 µM and the half-inhibitory concentration (IC50) came to 60.3 µM.

Consider `CC(C)C(=O)[O-].CC(C)C(=O)[O-].N.N.N.N.[Co+3].[O-][Cl+3]([O-])([O-])[O-]`, for which the outcome was inactive.

In the case of `CC1CCc2[nH]nc(CC3CC(=O)NC(=O)C3)c2C1` (configuration not stated), the EC50 is above 200 µM and the 50% inhibitory concentration (IC50) was above 200 µM.

In the case of `CCCCCCCCCCN=C(N)CSSCC(N)=NCCCCCCCCCC`, the EC50 is above 200 µM and the IC50 came to 16.6 µM.

In the case of `S=C1CSc2c(cnc3ccccc23)N1`, the EC50 was above 200 µM and the IC50 was determined as 105 µM.

`O=[N+]([O-])c1c(Cl)cccc1-c1c[nH]c(Cl)c1Cl`: the EC50 was above 123 µM and the IC50 worked out at 20.4 µM.

As for `COc1ccc2cc(C(=O)Nc3ccc(O)c(C(=O)O)c3)ccc2c1OC`, the EC50 was above 200 µM and the half-maximal inhibitory concentration (IC50) was above 200 µM.

As to `C/C=C/CP(=O)(c1ccccc1)c1ccccc1`, the EC50 was 0.0631 µM and the half-maximal inhibitory concentration (IC50) was above 200 µM.

`CC(C)/C(Cl)=N/OC(NC(=O)Nc1ccc(Cl)c(Cl)c1)(C(F)(F)F)C(F)(F)F`: the result was inactive.

As to `COc1ccc(OC(C)=O)c2c1CCC=CC2=O`, the result was inactive.

On to `NC(=O)c1ccccc1NC(=O)C(=O)C(c1cnc2ccc([N+](=O)[O-])cc2n1)[N+](=O)[O-]` (configuration not stated), for which the EC50 was above 61.7 µM and the IC50 was above 61.7 µM.

In the case of `C/C(=N/Nc1ccc([N+](=O)[O-])cc1[N+](=O)[O-])c1ccc(Sc2ccc(/C(C)=N/Nc3ccc([N+](=O)[O-])cc3[N+](=O)[O-])cc2)cc1`, the EC50 was above 50.1 µM and the IC50 is above 50.1 µM.

Take `Nc1nc(NNc2ccc(Cl)c(Cl)c2)cc(=O)[nH]1`: the EC50 is above 200 µM and the half-maximal inhibitory concentration (IC50) is 49 µM.

Take `CCC(C)C(CC)(C(=O)O)C(=O)O` (configuration not stated): the EC50 was above 1320 µM and the IC50 came out at 380 µM.

In the case of `O=C1OCC2C(=O)OCC12` (configuration not stated), the EC50 was above 200 µM and the IC50 was above 200 µM.

As for `OC1(c2ccccc2)CSc2ncnn21` (configuration not stated), the concentration for a half-maximal effect (EC50) was 138 µM and the IC50 is above 200 µM.

For the compound `CCOC(=O)CCN1C(=O)c2c(NC(=O)C(=O)O)cccc2S1(=O)=O`, the EC50 is above 200 µM and the concentration for half-maximal inhibition (IC50) was above 200 µM.

With `CC(C(=O)NCCNC(=O)CCC(=O)N(C)O)C(=O)NCCNC(=O)CCC(=O)N(C)O`, the EC50 is above 200 µM and the IC50 worked out at 151 µM.

As for `O=[N+]([O-])C(=C(Sc1ccccc1)Sc1ccccc1)C(Cl)=C(Cl)Cl`, the result was inactive.

Take `Cc1cn(C2CC3OP(=O)(OCc4ccccc4)OCC3O2)c(=O)[nH]c1=O` (configuration not stated): the EC50 was above 3.63 µM and the IC50 is above 3.63 µM.

For `O=C(Nc1ccccc1)[C@H](O)[C@@H](O)C(=O)Nc1ccccc1`, the EC50 is above 60.3 µM and the IC50 was determined as 49 µM.

On to `CS(=O)(=O)c1ccc(C(=O)O[C@@H]2C(=O)N3CC[C@H]4OC(O)[C@@H]2[C@H]43)cc1` (some centres not stated), for which the EC50 was above 200 µM and the half-maximal inhibitory concentration (IC50) is above 200 µM.

`C[C@@H]1O[C@@H](O[C@H]2CC[C@]3(C=O)[C@H]4CC[C@]5(C)[C@@H](c6ccc(=O)oc6)CC[C@]5(O)[C@@H]4CC[C@]3(O)C2)[C@H](O)[C@H](O)[C@H]1O[C@@H]1O[C@H](CO)[C@@H](O)[C@H](O)[C@H]1O`: the EC50 was above 0.2 µM and the half-inhibitory concentration (IC50) was determined as 0.0038 µM.

On to `COC(=O)C1(CC(=O)OC(C)(C)C)NCCc2c1[nH]c1ccccc21` (configuration not stated), for which the EC50 was above 115 µM and the IC50 is 95.5 µM.

With `CC(=O)/C(=C/c1ccc(N(C)C)cc1)c1ccccc1`, the EC50 was above 19.5 µM and the IC50 was above 19.5 µM.

As for `O=C(O)Cc1cccc2c(=O)c3cccc([N+](=O)[O-])c3[nH]c12`, the EC50 is above 200 µM and the half-maximal inhibitory concentration (IC50) was determined as 102 µM.

As to `CS(=O)(=O)Oc1cccc(/C=N/N=C(\N)NO)c1`, the EC50 is above 214 µM and the half-inhibitory concentration (IC50) came to 36.3 µM.

For the compound `CCN(CC)CCOc1cccc(NC(=O)CN(CC)CC)c1`, the EC50 is above 200 µM and the 50% inhibitory concentration (IC50) came to 81.3 µM.

For `CCCSCC(P(=O)(O)O)P(=O)(O)O`, the result was inactive.

For `c1ccc([S+]([CH2][Hg][CH2][S+](c2ccccc2)c2ccccc2)c2ccccc2)cc1`, the EC50 is above 30.2 µM and the IC50 came out at 10 µM.

Turning to `O=C1c2cc([N+](=O)[O-])cnc2S(=O)(=O)N1c1ccc(Oc2ccccc2)cc1`, the EC50 is above 200 µM and the 50% inhibitory concentration (IC50) was 105 µM.

`N#CC(C(=O)/C(=N\NC(N)=O)C(C#N)c1ccc(Cl)cc1)c1ccc(Cl)cc1` (configuration not stated): the EC50 was above 603 µM and the IC50 is 398 µM.

As for `CC(=O)NC(Cc1ccc(Cl)cc1)C(=O)NC(Cc1ccc(Cl)cc1)C(=O)NC(Cc1cccnc1)C(=O)NC(CO)C(=O)NC(Cc1ccc(O)cc1)C(=O)NC(CCCN=C(N)N)C(=O)NC(CC(C)C)C(=O)NC(CCCN=C(N)N)C(=O)N1CCCC1C(=O)NC(C)C(=O)O` (configuration not stated) (Ac-[Phe(4-Cl)][Phe(4-Cl)][3Pal]SYRLRPA-OH; configuration not given here), the EC50 is above 17 µM and the half-maximal inhibitory concentration (IC50) is above 17 µM.

Turning to `O=C(C(=O)n1ccc2ccccc21)n1ccc2ccccc21`, the EC50 was above 200 µM and the 50% inhibitory concentration (IC50) came to 178 µM.

By EC50 is commonly meant the concentration needed to bring the measured effect to its halfway point. By IC50 is commonly meant the midpoint of a concentration-inhibition curve. Higher therefore signals weaker potency.
